From US8283353B2, “Fused ring compound and use thereof” (Takeda Pharmaceutical Company Limited, priority 2009, dated 2012)

Assays:
human PPARγ = molecular target: T1, human PPARγ (Homo sapiens, UniProt P37231); test: PPARγ agonistic activity: luciferase reporter assay in PPARγ:RXRα:4ERPP/CHO-K1 cells; type: cell-based; conditions: CHO-K1, test compound 10^−6 M; luciferase activity of control compound X (1 μM) = 100%, non-administration group = 0%
T1 construct: expressed in transfected cells
T1 sequence (P37231 1-477 isoform P37231-2): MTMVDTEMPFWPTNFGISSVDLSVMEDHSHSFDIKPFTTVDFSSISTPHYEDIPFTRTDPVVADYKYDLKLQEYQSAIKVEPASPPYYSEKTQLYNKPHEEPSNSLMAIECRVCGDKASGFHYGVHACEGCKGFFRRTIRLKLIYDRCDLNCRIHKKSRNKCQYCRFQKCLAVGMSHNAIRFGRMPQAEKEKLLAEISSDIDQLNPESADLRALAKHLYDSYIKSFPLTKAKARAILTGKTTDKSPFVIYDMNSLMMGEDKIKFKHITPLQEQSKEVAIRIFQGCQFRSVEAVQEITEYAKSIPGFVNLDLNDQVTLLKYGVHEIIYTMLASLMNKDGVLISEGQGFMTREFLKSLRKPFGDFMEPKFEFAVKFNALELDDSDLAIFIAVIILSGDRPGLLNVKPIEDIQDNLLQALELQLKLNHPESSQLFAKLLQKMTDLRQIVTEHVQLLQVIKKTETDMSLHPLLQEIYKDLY
T1 sequence (P19793 1-462 partner): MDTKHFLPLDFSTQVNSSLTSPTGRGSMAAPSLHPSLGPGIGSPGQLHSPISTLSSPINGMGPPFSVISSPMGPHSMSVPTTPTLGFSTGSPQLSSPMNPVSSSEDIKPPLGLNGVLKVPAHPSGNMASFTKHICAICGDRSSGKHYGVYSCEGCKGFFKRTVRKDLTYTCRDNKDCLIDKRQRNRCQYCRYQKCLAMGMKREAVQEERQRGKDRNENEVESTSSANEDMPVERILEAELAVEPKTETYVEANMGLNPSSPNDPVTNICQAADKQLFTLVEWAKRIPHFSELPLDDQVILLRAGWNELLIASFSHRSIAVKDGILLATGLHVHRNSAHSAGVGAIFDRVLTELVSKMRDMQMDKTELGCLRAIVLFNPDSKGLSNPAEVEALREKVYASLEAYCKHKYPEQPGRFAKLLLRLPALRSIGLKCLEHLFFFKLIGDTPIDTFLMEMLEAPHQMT
Method in brief: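 Activity is expressed relative to untreated cells (0%) and 1 μM reference compound X (100%), from luciferase luminescence. Reporter line: PPARγ:RXRα:4ERPP/CHO-K1, exposed to compound for one day at 37 °C in F12 medium containing 0.1% fatty-acid-free BSA.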

human AT1 receptor = molecular target: T2, human AT1 receptor (Homo sapiens, UniProt P30556); test: AT1 receptor antagonistic activity: [125I]-angiotensin II binding assay on human AT1 receptor-expressing CHO-K1 cellular membrane fraction; conditions: 22.5 pM [125I]-angiotensin II, 1 hr room temperature
T2 construct: expressed in transfected cells; membrane fraction
T2 sequence (P30556 1-359): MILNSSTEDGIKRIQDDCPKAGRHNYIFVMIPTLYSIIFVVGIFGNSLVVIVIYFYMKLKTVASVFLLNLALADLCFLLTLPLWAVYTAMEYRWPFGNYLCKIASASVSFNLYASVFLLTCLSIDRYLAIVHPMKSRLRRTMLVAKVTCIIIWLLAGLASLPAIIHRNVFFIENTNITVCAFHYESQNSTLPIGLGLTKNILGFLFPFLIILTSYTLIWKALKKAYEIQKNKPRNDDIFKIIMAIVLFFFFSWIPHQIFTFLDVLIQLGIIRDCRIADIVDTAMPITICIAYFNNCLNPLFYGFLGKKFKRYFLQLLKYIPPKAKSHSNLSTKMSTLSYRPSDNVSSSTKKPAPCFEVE
Method in brief: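 Competition binding used radiolabelled angiotensin II on stably transfected CHO-K1 membrane fractions in Tris pH 7.4/MgCl2 buffer, optionally containing 0.3 mg/mL fatty acid-free BSA, 1 hr at room temperature. Filtration onto GF/C separated bound tracer, and nonspecific binding was measured with candesartan.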

Compound: CCCCc1c(Cc2ccc(-c3ccccc3-c3noc(=O)[nH]3)cc2)c(=O)n(C2CCOC(C)(C)C2)c2nc(C)nn12 (stereo not shown) [Example 137, 7-butyl-4-(2,2-dimethyltetrahydro-2H-pyran-4-yl)-2-methyl-6-{[2′-(5-oxo-4,5-dihydro-1,2,4-oxadiazol-3-yl)biphenyl-4-yl]methyl}[1,2,4]triazolo[1,5-a]pyrimidin-5(4H)-one]
- activation at 1 µM (human PPARγ): 20%
- IC50 (human AT1 receptor): 1.4 nM

Compound: CCCc1c(Cc2ccc(-c3ccccc3-c3noc(=O)[nH]3)cc2)c(=O)n(C2CCOCC2)c2ccnn12 [Example 269, 6-{[2′-(5-oxo-4,5-dihydro-1,2,4-oxadiazol-3-yl)biphenyl-4-yl]methyl}-7-propyl-4-(tetrahydro-2H-pyran-4-yl)pyrazolo[1,5-a]pyrimidin-5(4H)-one]
- activation at 1 µM (human PPARγ): 16%
- IC50 (human AT1 receptor): 2.2 nM

Compound: CCCc1c(Cc2ccc(-c3ccccc3-c3noc(=O)[nH]3)cc2)c(=O)n([C@H]2CC[C@H](OCC(O)(CC)CC)CC2)c2nc(C)nn12 [Example 197, 4-[trans-4-(2-ethyl-2-hydroxybutoxy)cyclohexyl]-2-methyl-6-{[2′-(5-oxo-4,5-dihydro-1,2,4-oxadiazol-3-yl)biphenyl-4-yl]methyl}-7-propyl[1,2,4]triazolo[1,5-a]pyrimidin-5(4H)-one]
- activation at 1 µM (human PPARγ): 17%
- IC50 (human AT1 receptor): 2 nM

Compound: CCCc1c(Cc2ccc(-c3ccccc3-c3noc(=O)[nH]3)cc2)c(=O)n([C@H]2CC[C@H](OC3(C(C)(C)O)CC3)CC2)c2ncnn12 [Example 363, 4-(trans-4-{[1-(1-hydroxy-1-methylethyl)cyclopropyl]oxy}cyclohexyl)-6-{[2′-(5-oxo-4,5-dihydro-1,2,4-oxadiazol-3-yl)biphenyl-4-yl]methyl}-7-propyl[1,2,4]triazolo[1,5-a]pyrimidin-5(4H)-one]
- activation at 1 µM (human PPARγ): 22%
- IC50 (human AT1 receptor): 2.3 nM

Compound: CCCCc1c(Cc2ccc(-c3ccccc3-c3noc(=O)[nH]3)cc2)c(=O)n([C@@H]2C[C@@H](C)O[C@@H](C)C2)c2ncnn12 [Example 138, 7-butyl-4-[(2R,4s,6S)-2,6-dimethyltetrahydro-2H-pyran-4-yl]-6-{[2′-(5-oxo-4,5-dihydro-1,2,4-oxadiazol-3-yl)biphenyl-4-yl]methyl}[1,2,4]triazolo[1,5-a]pyrimidin-5(4H)-one]
- activation at 1 µM (human PPARγ): 8%
- IC50 (human AT1 receptor): 1.3 nM

Compound: CCCc1c(Cc2ccc(-c3ccccc3-c3noc(=O)[nH]3)cc2)c(=O)n(Cc2ccc(F)cc2)c2nc(C)nn12 [Example 5, 4-(4-fluorobenzyl)-2-methyl-6-{[2′-(5-oxo-4,5-dihydro-1,2,4-oxadiazol-3-yl)biphenyl-4-yl]methyl}-7-propyl[1,2,4]triazolo[1,5-a]pyrimidin-5(4H)-one]
- activation at 1 µM (human PPARγ): 18%
- IC50 (human AT1 receptor): 1.7 nM

Compound: CCCc1c(Cc2ccc(-c3ccccc3-c3noc(=O)[nH]3)cc2F)c(=O)n([C@H]2CC[C@H](OCC(C)(C)O)CC2)c2ncnn12 [Example 233, 6-{[3-fluoro-2′-(5-oxo-4,5-dihydro-1,2,4-oxadiazol-3-yl)biphenyl-4-yl]methyl}-4-[trans-4-(2-hydroxy-2-methylpropoxy)cyclohexyl]-7-propyl[1,2,4]triazolo[1,5-a]pyrimidin-5(4H)-one]
- activation at 1 µM (human PPARγ): 26%
- IC50 (human AT1 receptor): 1.9 nM

Compound: CCCc1c(Cc2ccc(-c3ccccc3-c3noc(=O)[nH]3)cc2F)c(=O)n(C2CCOCC2)c2ncnn12 [Example 117, 6-{[3-fluoro-2′-(5-oxo-4,5-dihydro-1,2,4-oxadiazol-3-yl)biphenyl-4-yl]methyl}-7-propyl-4-(tetrahydro-2H-pyran-4-yl)[1,2,4]triazolo[1,5-a]pyrimidin-5(4H)-one]
- activation at 1 µM (human PPARγ): 18%
- IC50 (human AT1 receptor): 1.3 nM

Compound: CCCc1c(Cc2ccc(-c3ccccc3-c3noc(=O)[nH]3)cc2)c(=O)n([C@H]2CC[C@H](OCC(O)C(F)F)CC2)c2ncnn12 (stereo partly drawn) [Example 352, 4-[trans-4-(3,3-difluoro-2-hydroxypropoxy)cyclohexyl]-6-{[2′-(5-oxo-4,5-dihydro-1,2,4-oxadiazol-3-yl)biphenyl-4-yl]methyl}-7-propyl[1,2,4]triazolo[1,5-a]pyrimidin-5(4H)-one]
- activation at 1 µM (human PPARγ): 20%
- IC50 (human AT1 receptor): 1.4 nM

Compound: CCCc1c(Cc2ccc(-c3ccccc3-c3noc(=O)[nH]3)cc2F)c(=O)n(C2CCSCC2)c2nc(C)nn12 [Example 113, 6-{[3-fluoro-2′-(5-oxo-4,5-dihydro-1,2,4-oxadiazol-3-yl)biphenyl-4-yl]methyl}-2-methyl-7-propyl-4-(tetrahydro-2H-thiopyran-4-yl)[1,2,4]triazolo[1,5-a]pyrimidin-5(4H)-one]
- activation at 1 µM (human PPARγ): 20%
- IC50 (human AT1 receptor): 1.5 nM

Compound: CCCc1c(Cc2ccc(-c3ccccc3-c3noc(=O)[nH]3)cc2)c(=O)n(C2CCN(c3ccc(O)cc3)CC2)c2ncnn12 [Example 382, 4-[1-(4-hydroxyphenyl)piperidin-4-yl]-6-{[2′-(5-oxo-4,5-dihydro-1,2,4-oxadiazol-3-yl)biphenyl-4-yl]methyl}-7-propyl[1,2,4]triazolo[1,5-a]pyrimidin-5(4H)-one]
- activation at 1 µM (human PPARγ): 35%
- IC50 (human AT1 receptor): 2.9 nM

Compound: CCCc1c(Cc2ccc(-c3ccccc3-c3noc(=O)[nH]3)cc2)c(=O)n(CC(C)(C)C)c2nc(C)nn12 [Example 2, 4-(2,2-dimethylpropyl)-2-methyl-6-{[2′-(5-oxo-4,5-dihydro-1,2,4-oxadiazol-3-yl)biphenyl-4-yl]methyl}-7-propyl[1,2,4]triazolo[1,5-a]pyrimidin-5(4H)-one]
- activation at 1 µM (human PPARγ): 18%
- IC50 (human AT1 receptor): 1.3 nM

Compound: CCCc1c(Cc2ccc(-c3ccccc3-c3noc(=O)[nH]3)cc2)c(=O)n([C@H]2CC[C@H](OCC#N)CC2)c2ncnn12 [Example 210, ({trans-4-[5-oxo-6-{[2′-(5-oxo-4,5-dihydro-1,2,4-oxadiazol-3-yl)biphenyl-4-yl]methyl}-7-propyl[1,2,4]triazolo[1,5-a]pyrimidin-4(5H)-yl]cyclohexyl}oxy)acetonitrile]
- activation at 1 µM (human PPARγ): 33%
- IC50 (human AT1 receptor): 1.9 nM

Compound: CCCc1c(Cc2ccc(-c3ccccc3-c3noc(=O)[nH]3)cc2)c(=O)n([C@H]2CC[C@H](OCC3(O)CCC3)CC2)c2ncnn12 [Example 338, 4-{trans-4-[(1-hydroxycyclobutyl)methoxy]cyclohexyl}-6-{[2′-(5-oxo-4,5-dihydro-1,2,4-oxadiazol-3-yl)biphenyl-4-yl]methyl}-7-propyl[1,2,4]triazolo[1,5-a]pyrimidin-5(4H)-one]
- activation at 1 µM (human PPARγ): 36%
- IC50 (human AT1 receptor): 1.6 nM

Compound: CCCc1c(Cc2ccc(-c3ccccc3-c3noc(=O)[nH]3)cc2)c(=O)n([C@H]2CC[C@H](OC/C(C)=N/OC)CC2)c2ncnn12 [Example 216, 4-(trans-4-{[(2E)-2-(methoxyimino)propyl]oxy}cyclohexyl)-6-{[2′-(5-oxo-4,5-dihydro-1,2,4-oxadiazol-3-yl)biphenyl-4-yl]methyl}-7-propyl[1,2,4]triazolo[1,5-a]pyrimidin-5(4H)-one]
- activation at 1 µM (human PPARγ): 23%
- IC50 (human AT1 receptor): 1.6 nM

Compound: CCCc1c(Cc2ccc(-c3ccccc3-c3noc(=O)[nH]3)cc2)c(=O)n(CC2CC2)c2ncnn12 [Example 21, 4-(cyclopropylmethyl)-6-{[2′-(5-oxo-4,5-dihydro-1,2,4-oxadiazol-3-yl)biphenyl-4-yl]methyl}-7-propyl[1,2,4]triazolo[1,5-a]pyrimidin-5(4H)-one]
- activation at 1 µM (human PPARγ): 31%
- IC50 (human AT1 receptor): 2 nM

Compound: CCCc1c(Cc2ccc(-c3ccccc3-c3noc(=O)[nH]3)cc2)c(=O)n([C@H]2CC[C@H](OCC(C)(O)CF)CC2)c2ncnn12 (stereo partly drawn) [Example 337, 4-[trans-4-(3-fluoro-2-hydroxy-2-methylpropoxy)cyclohexyl]-6-{[2′-(5-oxo-4,5-dihydro-1,2,4-oxadiazol-3-yl)biphenyl-4-yl]methyl}-7-propyl[1,2,4]triazolo[1,5-a]pyrimidin-5(4H)-one]
- activation at 1 µM (human PPARγ): 24%
- IC50 (human AT1 receptor): 1.9 nM
